# Laboratory results from ChEMBL document CHEMBL4330128, “Discovery of two novel branched peptidomimetics containing endomorphin-2 and RF9 pharmacophores: Synthesis and neuropharmacological evaluation” (Bioorg Med Chem, 2019).
# Active and inactive are the calls of the source. No cut-off for these calls is given here. Where a SMILES comes first, the peptide text is derived from it. Side-chain parts run from the residue outwards. The star is where a group is joined. Adamantane1carbonyl = O=C(C12CC3CC(CC(C3)C1)C2)*
# How the values were obtained:
# Mus musculus [1] = assay: Antinociceptive activity in Kunming mouse model of thermal-induced nociception assessed as increase in latency to tail withdrawal at 10 nmol, icv measured up to 60 mins by tail flick test; format: functional, organism-based
# [2] = target: T1, Neuropeptide FF receptor 1 (Homo sapiens, UniProt Q9GZQ6); assay: Antagonist activity at NPFF1 receptor (unknown origin) expressed in HEK293A cells assessed as reversal of […] induced inhibition of forskolin-stimulated cAMP accumulation measured after 30 mins; format: functional, cell-based
# [3] = target: T2, Neuropeptide FF receptor 2 (Homo sapiens, UniProt Q9Y5X5); assay: Antagonist activity at NPFF2 receptor (unknown origin) expressed in HEK293A cells assessed as reversal of […] induced inhibition of forskolin-stimulated cAMP accumulation measured after 30 mins; format: functional, cell-based
# N2a = assay: Effect on neurite outgrowth in mouse Neuro2a cells at 10 uM after 18 hrs by phase contrast microscopic analysis relative to control; format: cell-based
# Mus musculus [4] = assay: Antinociceptive activity in Kunming mouse model of thermal-induced nociception assessed as increase in latency to tail withdrawal at 5 nmol, icv measured up to 60 mins by tail flick test; format: functional, organism-based
# Mus musculus [5] = assay: Antiallodynic activity in carrageenan-induced Kunming mouse model of mechanical hyperalgesia administered as intrathecal injection after 10 to 90 mins by Von Frey filament assay; format: functional
# Mus musculus [6] = assay: Antiallodynic activity in carrageenan-induced Kunming mouse model of mechanical hyperalgesia administered as intrathecal injection after 10 to 90 mins in presence of NPFF receptor antagonist RF9 by Von Frey filament assay; format: functional, organism-based
# Mus musculus [7] = assay: Antiallodynic activity in carrageenan-induced Kunming mouse model of mechanical hyperalgesia administered as intrathecal injection after 10 to 90 mins in presence of opioid receptor antagonist naloxone by Von Frey filament assay; format: functional, organism-based
# Mus musculus [8] = assay: Antinociceptive activity in Kunming mouse model of thermal-induced nociception assessed as increase in latency to tail withdrawal at 2 to 4 nmol, icv administered once daily for 5 days measured daily at 30 mins post dose by tail flick test; format: functional, organism-based
# Mus musculus [9] = assay: Antinociceptive activity in Kunming mouse model of thermal-induced nociception assessed as increase in latency to tail withdrawal at 2 nmol, icv administered once daily for 8 days measured daily at 30 mins post dose by tail flick test relative to control; format: functional
# Mus musculus [10] = assay: Antinociceptive activity in Kunming mouse model of thermal-induced nociception assessed as increase in latency to tail withdrawal at 4 nmol, icv administered once daily for 8 days measured daily at 30 mins post dose by tail flick test relative to control; format: functional
# Mus musculus [11] = assay: Antinociceptive activity in Kunming mouse model of thermal-induced nociception assessed as increase in latency to tail withdrawal at 2 to 4 nmol, icv administered once daily for 8 days measured on days 6 to 8 at 30 mins post dose in presence of NPFF receptor antagonist RF9 by tail flick test; format: functional, organism-based
# [12] = Toxicity in Kunming mouse assessed as inhibition of gastrointestinal transit by measuring reduction in distance traveled by charcoal at 10 mg/kg, ip dosed 15 mins prior charcoal meal measured after 30 mins; format: organism-based; conditions: in vivo, 0.5 h
# Mu-type opioid receptor = Mu-type opioid receptor (Homo sapiens, UniProt P35372); assay: Agonist activity at mu-opioid receptor (unknown origin) expressed in HEK293A cells assessed as inhibition of forskolin-induced cAMP accumulation measured after 30 mins; format: functional, cell-based
# [13] = target: Delta-type opioid receptor (Homo sapiens, UniProt P41143); assay: Agonist activity at delta-opioid receptor (unknown origin) expressed in HEK293A cells assessed as inhibition of forskolin-induced cAMP accumulation measured after 30 mins; format: functional, cell-based
# [14] = target: T2, Neuropeptide FF receptor 2; assay: Agonist activity at NPFF2 receptor (unknown origin) expressed in HEK293A cells assessed as inhibition of forskolin-stimulated cAMP accumulation measured after 30 mins; format: functional, cell-based
# [15] = target: T2, Neuropeptide FF receptor 2; assay: Agonist activity at NPFF2 receptor (unknown origin) expressed in HEK293A cells assessed as inhibition of forskolin-stimulated cAMP accumulation measured after 30 mins relative to NPFF; format: functional, cell-based
# [16] = target: Neuropeptide FF receptor 2 (Mus musculus) (UniProt Q924H0); assay: Antagonist activity at NPFF2 receptor in mouse Neuro2a cells assessed as inhibition of NPFF-induced neurite outgrowth by measuring neurite outgrowth at 10 uM after 18 hrs by phase contrast microscopic analysis (reference value: 24.05 +/- 1.19%); format: cell-based; parameters: scale not given: the % may be the effect or the level left
# Mus musculus [17] = assay: Antinociceptive activity in icv dosed Kunming mouse model of thermal-induced nociception assessed as increase in latency to tail withdrawal by tail flick test; format: functional
# Mus musculus [18] = assay: Antinociceptive activity in Kunming mouse model of thermal-induced nociception assessed as increase in latency to tail withdrawal at 20 nmol, icv measured up to 60 mins in presence of opioid receptor antagonist naloxone by tail flick test; format: functional, organism-based
# Mus musculus [19] = assay: Antinociceptive activity in Kunming mouse model of thermal-induced nociception assessed as increase in latency to tail withdrawal at 10 nmol, icv measured up to 60 mins in presence of NPFF receptor antagonist RF9 by tail flick test; format: functional, organism-based
# [20] = Toxicity in Kunming mouse assessed as impairment of motor coordination at 20 nmol, icv measured after 10 to 40 mins by rotarod test; conditions: in vivo, icv_or_intrathecal
# [21] = Toxicity in Kunming mouse assessed as impairment of motor coordination at 20 nmol, it measured after 10 to 40 mins by rotarod test; conditions: in vivo, icv_or_intrathecal
# Mus musculus [22] = assay: Antinociceptive activity in Kunming mouse model of thermal-induced nociception assessed as increase in latency to tail withdrawal at 10 to 20 nmol, icv administered once daily for 5 to 8 days measured daily at 30 mins post dose by tail flick test; format: functional, organism-based
# Mus musculus [23] = assay: Antinociceptive activity in Kunming mouse model of thermal-induced nociception assessed as increase in latency to tail withdrawal at 2 to 4 nmol, icv administered once daily for 8 days measured daily at 30 mins post dose in presence of NPFF receptor antagonist RF9 by tail flick test; format: functional, organism-based
# [24] = Toxicity in Kunming mouse assessed as inhibition of gastrointestinal transit by measuring reduction in distance traveled by charcoal at 5 to 20 nmol, icv dosed 15 mins prior charcoal meal measured after 30 mins; format: organism-based; conditions: in vivo, icv_or_intrathecal, 0.5 h
# [25] = target: T1, Neuropeptide FF receptor 1; assay: Agonist activity at NPFF1 receptor (unknown origin) expressed in HEK293A cells assessed as inhibition of forskolin-stimulated cAMP accumulation measured after 30 mins; format: functional, cell-based
# [26] = target: Kappa-type opioid receptor (Homo sapiens) (UniProt P41145)
# Description: Agonist activity at kappa-opioid receptor (unknown origin) expressed in HEK293A cells assessed as inhibition of forskolin-induced cAMP accumulation measured after 30 mins
# Mus musculus [27] = assay: Antinociceptive activity in Kunming mouse model of thermal-induced nociception assessed as increase in latency to tail withdrawal at 20 nmol, icv measured up to 60 mins in presence of mu-opioid receptor antagonist beta-FNA by tail flick test; format: functional, organism-based
# Mus musculus [28] = assay: Antinociceptive activity in Kunming mouse model of thermal-induced nociception assessed as increase in latency to tail withdrawal at 20 nmol, icv measured up to 60 mins in presence of kappa-opioid receptor antagonist nor-BNI by tail flick test; format: functional, organism-based
# Mus musculus [29] = assay: Antinociceptive activity in Kunming mouse model of thermal-induced nociception assessed as increase in latency to tail withdrawal at 20 nmol, icv measured up to 60 mins in presence of delta-opioid receptor antagonist naltrindole by tail flick test; format: functional, organism-based
# [30] = Toxicity in Kunming mouse assessed as inhibition of gastrointestinal transit by measuring reduction in distance traveled by charcoal at 10 to 30 mg/kg, ip dosed 15 mins prior charcoal meal measured after 30 mins; format: organism-based; conditions: in vivo, 0.5 h
# Mus musculus [31] = assay: Antinociceptive activity in icv dosed Kunming mouse model of thermal-induced nociception assessed as increase in latency to tail withdrawal up to 60 mins radiant heat tail flick method; format: functional
# Delta-type opioid receptor, sequence (P41143 whole entry): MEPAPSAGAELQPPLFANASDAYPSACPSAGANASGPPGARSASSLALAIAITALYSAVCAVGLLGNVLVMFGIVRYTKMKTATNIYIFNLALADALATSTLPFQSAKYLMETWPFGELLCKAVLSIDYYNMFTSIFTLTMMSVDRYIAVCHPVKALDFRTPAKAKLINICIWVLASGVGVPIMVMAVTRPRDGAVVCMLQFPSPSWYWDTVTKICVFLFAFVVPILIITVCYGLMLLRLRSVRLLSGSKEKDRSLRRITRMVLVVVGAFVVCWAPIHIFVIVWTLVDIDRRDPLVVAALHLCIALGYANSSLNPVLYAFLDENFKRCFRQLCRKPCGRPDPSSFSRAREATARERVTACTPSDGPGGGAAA
# Neuropeptide FF receptor 2 (Mus musculus), sequence (Q924H0 whole entry): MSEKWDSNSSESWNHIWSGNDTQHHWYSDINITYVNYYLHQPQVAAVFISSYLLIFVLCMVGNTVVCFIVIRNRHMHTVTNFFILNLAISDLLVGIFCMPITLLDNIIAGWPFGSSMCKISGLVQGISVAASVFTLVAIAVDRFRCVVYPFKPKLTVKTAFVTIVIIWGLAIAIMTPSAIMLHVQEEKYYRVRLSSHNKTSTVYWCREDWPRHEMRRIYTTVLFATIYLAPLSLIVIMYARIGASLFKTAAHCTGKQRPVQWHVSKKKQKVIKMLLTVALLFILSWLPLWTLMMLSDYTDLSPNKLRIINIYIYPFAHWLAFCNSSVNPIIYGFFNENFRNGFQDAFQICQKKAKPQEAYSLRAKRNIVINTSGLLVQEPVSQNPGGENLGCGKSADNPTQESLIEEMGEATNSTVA
# Mu-type opioid receptor, sequence (P35372 whole entry): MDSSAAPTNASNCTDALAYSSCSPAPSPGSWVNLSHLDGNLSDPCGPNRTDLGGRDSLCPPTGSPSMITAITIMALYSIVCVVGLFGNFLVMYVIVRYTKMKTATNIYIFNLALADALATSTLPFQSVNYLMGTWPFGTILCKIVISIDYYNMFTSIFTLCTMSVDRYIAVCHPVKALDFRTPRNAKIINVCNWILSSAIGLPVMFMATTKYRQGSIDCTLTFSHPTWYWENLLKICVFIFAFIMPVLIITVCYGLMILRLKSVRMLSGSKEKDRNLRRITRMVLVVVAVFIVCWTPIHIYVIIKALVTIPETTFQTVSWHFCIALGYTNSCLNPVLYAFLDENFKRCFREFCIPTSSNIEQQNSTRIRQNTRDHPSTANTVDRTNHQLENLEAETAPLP
# T2 sequence (Q9Y5X5 whole entry): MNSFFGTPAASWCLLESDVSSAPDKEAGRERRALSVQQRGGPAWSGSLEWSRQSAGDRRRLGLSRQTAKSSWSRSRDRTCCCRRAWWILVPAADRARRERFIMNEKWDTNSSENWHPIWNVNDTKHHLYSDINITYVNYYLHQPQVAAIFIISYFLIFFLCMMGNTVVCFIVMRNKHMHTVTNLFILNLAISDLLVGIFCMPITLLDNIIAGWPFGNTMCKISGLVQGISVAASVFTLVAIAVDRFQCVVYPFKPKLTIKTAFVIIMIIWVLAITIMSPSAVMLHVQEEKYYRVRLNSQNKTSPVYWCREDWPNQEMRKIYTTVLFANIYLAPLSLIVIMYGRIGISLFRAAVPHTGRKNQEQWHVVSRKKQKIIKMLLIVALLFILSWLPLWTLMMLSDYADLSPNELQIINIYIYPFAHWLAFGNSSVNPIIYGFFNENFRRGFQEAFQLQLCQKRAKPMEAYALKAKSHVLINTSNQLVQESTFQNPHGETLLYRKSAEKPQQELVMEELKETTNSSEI
# T1 sequence (Q9GZQ6 whole entry): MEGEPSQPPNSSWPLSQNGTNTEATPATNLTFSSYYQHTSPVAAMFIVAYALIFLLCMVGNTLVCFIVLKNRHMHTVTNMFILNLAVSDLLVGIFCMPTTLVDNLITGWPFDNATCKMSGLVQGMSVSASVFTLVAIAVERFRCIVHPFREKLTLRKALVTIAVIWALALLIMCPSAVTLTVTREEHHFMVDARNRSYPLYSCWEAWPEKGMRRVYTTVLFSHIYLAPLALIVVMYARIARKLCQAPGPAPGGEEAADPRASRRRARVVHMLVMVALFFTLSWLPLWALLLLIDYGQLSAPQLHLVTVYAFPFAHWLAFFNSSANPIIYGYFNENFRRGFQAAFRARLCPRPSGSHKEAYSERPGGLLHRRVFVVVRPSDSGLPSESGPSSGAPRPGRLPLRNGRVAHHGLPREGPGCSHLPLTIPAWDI
# Kappa-type opioid receptor (Homo sapiens), sequence (P41145 whole entry): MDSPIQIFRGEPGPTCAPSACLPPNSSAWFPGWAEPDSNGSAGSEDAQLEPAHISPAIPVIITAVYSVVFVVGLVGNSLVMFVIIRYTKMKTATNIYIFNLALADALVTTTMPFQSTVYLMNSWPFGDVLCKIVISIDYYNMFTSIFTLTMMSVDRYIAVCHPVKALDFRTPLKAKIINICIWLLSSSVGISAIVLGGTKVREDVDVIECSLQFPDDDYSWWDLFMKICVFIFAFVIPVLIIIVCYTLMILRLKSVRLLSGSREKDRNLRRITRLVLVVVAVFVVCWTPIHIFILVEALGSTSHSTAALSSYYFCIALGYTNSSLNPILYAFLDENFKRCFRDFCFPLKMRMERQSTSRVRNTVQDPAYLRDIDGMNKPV
structure (smiles),measurement,setting,value
COC(=O)/C=C/C(=O)N[C@@H]1CC[C@@]2(O)[C@H]3Cc4ccc(O)c5c4[C@@]2(CCN3CC2CC2)[C@H]1O5,Activity,Mus musculus [1],inactive
NC(=O)[C@H](Cc1ccccc1)NC(=O)[C@H](CCCN=C(N)N)NC(=O)C12CC3CC(CC(C3)C1)C2,IC50,[2],410 nM
same,IC50,[3],410 nM
same,Activity,N2a,12.41%
C=CCN1CC[C@]23c4c5ccc(O)c4O[C@H]2C(=O)CC[C@@]3(O)[C@H]1C5,Activity,Mus musculus [4],inactive
CN1CC[C@]23c4c5ccc(O)c4O[C@H]2[C@@H](O)C=C[C@H]3[C@H]1C5 [MORPHINE],Activity,Mus musculus [5],Dose-dependent effect
same,ED50,Mus musculus [5],0.44 nmol
same,Activity,Mus musculus [6],Active
same,Activity,Mus musculus [7],inactive
same,Activity,Mus musculus [8],inactive
same,MPE,Mus musculus [9],6.67%
same,MPE,Mus musculus [10],9.88%
same,Activity,Mus musculus [11],Active
same,Activity,[12],Toxic
N=C(N)NCCC[C@H](NC(=O)C12CC3CC(CC(C3)C1)C2)C(=O)N[C@@H](Cc1ccccc1)C(=O)NCCCC[C@H](NC(=O)[C@H](Cc1ccccc1)NC(=O)[C@H](Cc1ccccc1)NC(=O)[C@@H]1CCCN1C(=O)[C@@H](N)Cc1ccc(O)cc1)C(N)=O (H-YPFFK([Phe-Arg-Adamantane1carbonyl])-NH2),EC50,Mu-type opioid receptor,1770 nM
same,Emax,Mu-type opioid receptor,54.3%
same,Emax,[13],55.9%
same,EC50,[13]; read-out: EC50,2240 nM
same,EC50,[13]; read-out: pEC50 (converted),2000 nM
same,IC50,[2],520 nM
same,inhibition,[2],Dose-dependent effect
same,IC50,[3],520 nM
same,EC50,[14],170 nM
same,Emax,[14],26.6%
same,inhibition,[14],Dose-dependent effect
same,Emax,[15],50.9%
same,Activity,[16],10.3%
same,Activity,N2a,11.88%
same,ED50,Mus musculus [17],6.27 nmol
same,Activity,Mus musculus [18],inactive
same,Activity,Mus musculus [19],Active
same,Activity,Mus musculus [5],Dose-dependent effect
same,ED50,Mus musculus [5],9.25 nmol
same,Activity,Mus musculus [6],inactive
same,Activity,Mus musculus [7],inactive
same,Activity,[20],Non-Toxic
same,Activity,[21],Non-Toxic
same,Activity,Mus musculus [22],Active
same,Activity,Mus musculus [23],Active
same,Activity,[12],Non-Toxic
same,Activity,[24],Non-Toxic
same,Emax,[25],inactive
same,pEC50,[25],inactive
same,pEC50,[26],inactive
N=C(N)NCCC[C@H](NC(=O)C12CC3CC(CC(C3)C1)C2)C(=O)N[C@@H](Cc1ccccc1)C(=O)N[C@@H](CCCCNC(=O)[C@H](Cc1ccccc1)NC(=O)[C@H](Cc1ccccc1)NC(=O)[C@@H]1CCCN1C(=O)[C@@H](N)Cc1ccc(O)cc1)C(N)=O,EC50,Mu-type opioid receptor,1900 nM
same,Emax,Mu-type opioid receptor,62%
same,Emax,[13],inactive
same,pEC50,[13],inactive
same,IC50,[2],190 nM
same,inhibition,[2],Dose-dependent effect
same,IC50,[3],190 nM
same,EC50,[14],250 nM
same,Emax,[14],31.3%
same,inhibition,[14],Dose-dependent effect
same,Emax,[15],60%
same,Activity,[16],14.1%
same,Activity,N2a,12.71%
same,ED50,Mus musculus [17],4.8 nmol
same,Activity,Mus musculus [18],inactive
same,Activity,Mus musculus [27],inactive
same,Activity,Mus musculus [28],Active
same,Activity,Mus musculus [29],Active
same,Activity,Mus musculus [19],Active
same,Activity,Mus musculus [5],Dose-dependent effect
same,ED50,Mus musculus [5],8.16 nmol
same,Activity,Mus musculus [6],inactive
same,Activity,Mus musculus [7],inactive
same,Activity,[20],Non-Toxic
same,Activity,[21],Non-Toxic
same,Activity,Mus musculus [22],Active
same,Activity,Mus musculus [23],Active
same,Activity,[12],Non-Toxic
same,Activity,[24],Non-Toxic
same,Emax,[25],inactive
same,pEC50,[25],inactive
same,pEC50,[26],inactive
Oc1ccc2c3c1O[C@H]1c4[nH]c5c(c4C[C@@]4(O)[C@@H](C2)N(CC2CC2)CC[C@]314)C[C@@]1(O)[C@H]2Cc3ccc(O)c4c3[C@@]1(CCN2CC1CC1)[C@H]5O4,Activity,Mus musculus [1],inactive
CC(C)C[C@H](NC(=O)[C@H](Cc1ccccc1)NC(=O)[C@H](C)N(C)C(=O)[C@@H]1CCCN1C(=O)[C@H](N)CC(N)=O)C(=O)N[C@@H](Cc1ccccc1)C(=O)N[C@@H](CCC(N)=O)C(=O)N1CCC[C@H]1C(=O)N[C@@H](CCC(N)=O)C(=O)N[C@@H](CCCNC(=N)N)C(=O)N[C@@H](Cc1ccccc1)C(N)=O,Activity,Mus musculus [5],Dose-dependent effect
same,ED50,Mus musculus [5],26.2 nmol
same,Activity,Mus musculus [6],inactive
same,Activity,Mus musculus [7],inactive
NC(=O)[C@H](Cc1ccccc1)NC(=O)[C@H](Cc1ccccc1)NC(=O)[C@@H]1CCCN1C(=O)[C@@H](N)Cc1ccc(O)cc1 [ENDOMORPHIN 2],Emax,Mu-type opioid receptor,76.8%
same,Activity,N2a,16.49%
same,Activity,[30],Non-Toxic
same,ED50,Mus musculus [31],6.88 nmol
N=C(N)NCCC[C@H](NC(=O)C12CC3CC(CC(C3)C1)C2)C(=O)N[C@@H](Cc1ccccc1)C(N)=O,inhibition,[2],Dose-dependent effect
same,Activity,[16],12.9%
same,Activity,Mus musculus [1],inactive
Oc1ccc2c3c1O[C@H]1c4[nH]c5ccccc5c4C[C@@]4(O)[C@@H](C2)N(CC2CC2)CC[C@]314,Activity,Mus musculus [1],inactive
